Data from US7833795B2, “Assessment of cardiovascular risk using isoprostane biomarkers and COX-2 selective inhibitors” (The Trustees of the University of Pennsylvania, priority 2004, dated 2010).

Tests used:
Male Fisher 344 rats [1] = assay: Urinary 8,12-iso-iPF2α-VI by LC/MS/MS; format: in vivo, rat; conditions: for 8,12-iso-iPF2a-VI (by LC/MS/MS): urine
Procedure: (§1) Animals and treatment protocol: Male Fisher 344 rats (260-280 g) obtained from Charles River Laboratories (Raleigh, N.C.) were used in all experiments. The animals were housed three to a cage. Autoclaved hardwood bedding was used in solid-bottom polycarbonate cages with filter tops. Animal rooms were maintained at 20-25° C. with 35-70% relative humidity with alternating 12-hour light and dark cycles. The rats had free access to deionized, reverse-osmosis-treated water and received autoclaved NIH 31 rodent chow (Zeigler Bros., Gardners, Pa.) ad libitum. For all experiments, rats were fasted overnight and then administered intraperitoneal injections of carbon tetrachloride in canola oil. Control rats received an equal volume of canola oil. Fasting continued throughout the experiment. Rats were anesthetized with Nembutal (0.1 ml/100 g body weight) and 5 ml blood was removed from the dorsal aorta proximal to its bifurcation into the common iliac arteries.
Indomethacin pretreatment: The indomethacin regimen used has been previously shown to inhibit COX activity in rats by 90% (dose of 5 mg/kg s.c. 24 hours, 12 hours, and 2 hours prior to the injection of CCl4) (Jackson, 1989, J. Pharmacol. Exp. Ther. 250: 9-21). An additional booster dose was injected 8 hours after the last injection of CCl4 for the measurements performed 16 hours after treatment with CCl4.
Meclofenamic acid pretreatment: Meclofenamic acid was injected at a dose of 5 mg/kg i.p. 12 h and 2 h prior to the injection of CCl4.
Carbon tetrachloride (CCL4) treatment: Animals from each of the three dose groups (Control-canola oil, 120 mg/kg CCl4 i.p. and 1200 mg/kg CCl4 i.p.) were investigated at three time points (2, 7, and 16 hours after CCl4 injection). Indomethacin-pretreated rats were also investigated at the same three time points, and the meclofenamic acid-pretreated rats were investigated at one time point (7 hours). Each group consisted of five rats for each analysis, except the meclofenamic acid pretreatment group which consisted of six rats. Animal treatment, sample preparation, assessment of liver histology and serum enzyme activities are described elsewhere (Kadiiska et al., 2000, Free Radic. Biol. Med. 28: 838-845; Jackson, 1989, J. Pharmacol. Exp. Ther. 250: 9-21) and were carried out at NIEHS, Research Triangle Park, N.C.
Urine sample preparation: The day prior to treatment, both experimental and control animals were placed in stainless steel metabolic cages especially designed for urine collection. For Experimental Example 2, animals were placed in metabolic cages immediately after the last injection of indomethacin or meclofenamic acid. Urine was collected (in dark vials) from the animals during the following intervals: 2 to 7 hours and 7 to 16 hours after CCl4 or canola oil (controls) treatment. Urine samples from indomethacin-pretreated rats were collected from 2 to 7 hours and 7 to 16 hours after the injection of CCl4, whereas samples from meclofenamic-acid-pretreated rats were collected only from 2 to 7 hours after the injection. All urine samples were immediately frozen on dry ice and stored at −70° C.
Analysis of 8,12-iso-iPF2α-VI, which is, along with its epimer 5-epi-8,12-iso-iPF2α-VI, the most prevalent PGF-ring isoprostane in human urine, was accomplished by addition of a tetradeuterated analog, solid phase extraction and quantitation using liquid chromatography and tandem mass spectroscopy (LC/MS/MS) (Li et al., 1999, Proc. Natl. Acad. Sci. USA 96: 13381-13386). The measurements were performed at the University of Pennsylvania, Philadelphia, Pa.

Male Fisher 344 rats [2] = assay: Plasma MDA, Bioxytech LPO-586 colorimetric assay; format: in vivo, rat; conditions: both CCl4 doses
Procedure: as §1, with “arteries. […]” for “arteries.”
Two colorimetric-based assays, using third derivative spectroscopy, were also used to measure MDA in plasma. […] One molecule of free MDA combines with 2 molecules of the chromogenic agent to produce a stable chromophore with a maximal absorbance at 586 nm. In both assays, the concentration of MDA was determined with 3rd derivative spectroscopy. […]

Question: With `ClC(Cl)(Cl)Cl` [CCl4, Carbon tetrachloride] as the compound, how does the “8,12-iso-iPF2a-VI (by LC/MS/MS)” value (Male Fisher 344 rats [1]; CCl4 120 mg/kg i.p., 7 h) read?
Answer: 36.8 ng/mL

Question: What about the “8,12-iso-iPF2a-VI (by LC/MS/MS)” value (Male Fisher 344 rats [1]; CCl4 120 mg/kg i.p., 16 h) of the same compound?
Answer: 32.4 ng/mL

Question: What about the “8,12-iso-iPF2a-VI (by LC/MS/MS)” value (Male Fisher 344 rats [1]; CCl4 1200 mg/kg i.p., 7 h) of the same compound?
Answer: 84.3 ng/mL

Question: What about the “8,12-iso-iPF2a-VI (by LC/MS/MS)” value (Male Fisher 344 rats [1]; CCl4 1200 mg/kg i.p., 16 h) of the same compound?
Answer: 78.5 ng/mL

Question: What about the “increase of urinary 8,12-iso-iPF2α-VI” value (Male Fisher 344 rats [1]; high dose CCl4, 7 h) of the same compound?
Answer: 17 fold

Question: What about the “increase of urinary 8,12-iso-iPF2α-VI” value (Male Fisher 344 rats [1]; high dose CCl4, 16 h) of the same compound?
Answer: 7 fold

Question: And the “plasma MDA with LPO-586 reagents, 3rd derivative analysis” value (Male Fisher 344 rats [2])?
Answer: significant increase was found only for the early time points
